Data as given in patent US10442803B2, “Tricyclic heterocycles as bet protein inhibitors” (Incyte Corporation, priority 2013, dated 2019).
Counter-ions that a name gives are not always drawn.

These compounds were tested on KMS.12.BM cells (assay: KMS.12.BM cell viability assay). Settings: 72 h; KMS.12.BM human myeloma cells, 3 days, Cell Titer-GLO ATP quantitation; read-out: KMS cellular IC50.
Assay type: cell-based
Outline: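 Human myeloma KMS.12.BM cells, 5000 per well in RPMI/10% FBS, exposed 3 days to compound concentration range. Viability from ATP-based Cell Titer-GLO luminescence; IC50 derived.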

Question: How did the IC50 turn out when CCN1CC(CC#N)(n2ccc(-c3cc4c(ccc5nnc(C)n54)n3Cc3cccc(Cl)c3)n2)C1 [Example 158, (3-{3-[6-(3-Chlorobenzyl)-1-methyl-6H-pyrrolo[2,3-e][1,2,4]triazolo[4,3-a]pyridin-7-yl]-1H-pyrazol-1-yl}-1-ethylazetidin-3-yl)acetonitrile bis(trifluoroacetate) salt] was run?
Answer: The IC50 was at most 1 µM.

Question: CCNC(=O)c1cc2c(ccc3nnc(C)n32)n1Cc1cccc(Cl)c1 [Example 113, 6-(3-Chlorobenzyl)-N-ethyl-1-methyl-6H-pyrrolo[2,3-e][1,2,4]triazolo[4,3-a]pyridine-7-carboxamide trifluoroacetate salt] was tested. Which IC50 did it give?
Answer: The IC50 was at most 1 µM.

Question: Which IC50 does the source give for Cc1cc2c(cc(NC(=O)OC(C)(C)C)c3nnc(C)n32)n1Cc1ccccc1 [Example 248, tert-Butyl 6-benzyl-1,7-dimethyl-6H-pyrrolo[2,3-e][1,2,4]triazolo[4,3-a]pyridin-4-ylcarbamate] here?
Answer: Its IC50 is at most 1 µM.

Question: With Cc1cc2c(ccc3nnc(C)n32)n1Cc1cccc(CN(C)C)c1 [Example 40, 1-{3-[(1,7-dimethyl-6H-pyrrolo[2,3-e][1,2,4]triazolo[4,3-a]pyridin-6-yl)methyl]phenyl}-N,N-dimethylmethanamine] as the compound, how does the IC50 read?
Answer: The IC50 was at most 1 µM.

Question: Which IC50 does the source give for Cc1nnc2ccc3c(cc(-c4ccn(C5(CC#N)CN(C)C5)n4)n3Cc3ccccc3)n12 [Example 93, {3-[3-(6-benzyl-1-methyl-6H-pyrrolo[2,3-e][1,2,4]triazolo[4,3-a]pyridin-7-yl)-1H-pyrazol-1-yl]-1-methylazetidin-3-yl}acetonitrile] here?
Answer: The IC50 was at most 1 µM.

Question: For Cc1cc2c(cc(NC(N)=O)c3nnc(C)n32)n1Cc1ccccc1F [Example 238, 1-(6-(2-Fluorobenzyl)-1,7-dimethyl-6H-pyrrolo[2,3-e][1,2,4]triazolo[4,3-a]pyridin-4-yl)urea], which IC50 is on record?
Answer: The IC50 was 1 to 10 µM.

Question: Which IC50 does the source give for CC(=O)N1CC(CC#N)(n2ccc(-c3cc4c(ccc5nnc(C)n54)n3Cc3cccc(Cl)c3)n2)C1 [Example 106, (1-acetyl-3-{3-[6-(3-chlorobenzyl)-1-methyl-6H-pyrrolo[2,3-e][1,2,4]triazolo[4,3-a]pyridin-7-yl]-1H-pyrazol-1-yl}azetidin-3-yl)acetonitrile] here?
Answer: The IC50 was at most 1 µM.

Question: For Cc1nnc2ccc3c(cc(-c4ccn(CCC(=O)N5CCC5)n4)n3Cc3cccc(Cl)c3)n12 [Example 104, 7-[1-(3-azetidin-1-yl-3-oxopropyl)-1H-pyrazol-3-yl]-6-(3-chlorobenzyl)-1-methyl-6H-pyrrolo[2,3-e][1,2,4]triazolo[4,3-a]pyridine], which IC50 is on record?
Answer: Its IC50 is at most 1 µM.

Question: For Cc1cc2c(cc(Nc3nc4ccccc4o3)c3nnc(C)n32)n1Cc1ccccc1 [Example 203, N-1,3-Benzoxazol-2-yl-6-benzyl-1,7-dimethyl-6H-pyrrolo[2,3-e][1,2,4]triazolo[4,3-a]pyridin-4-amine bis(trifluoroacetate) salt], which IC50 is on record?
Answer: The IC50 was at most 1 µM.

Question: Which IC50 does the source give for Cc1nnc2ccc3c(cc(-c4ccn(CC(C)C#N)n4)n3Cc3ccccc3)n12 (racemic) [Example 88, 3-[3-(6-benzyl-1-methyl-6H-pyrrolo[2,3-e][1,2,4]triazolo[4,3-a]pyridin-7-yl)-1H-pyrazol-1-yl]-2-methylpropanenitrile trifluoroacetate salt (racemate)] here?
Answer: Its IC50 is at most 1 µM.

Question: For Cc1nnc2ccc3c(cc(C4=NCCO4)n3Cc3cccc(Cl)c3)n12 [Example 193, 6-(3-Chlorobenzyl)-7-(4,5-dihydro-1,3-oxazol-2-yl)-1-methyl-6H-pyrrolo[2,3-e][1,2,4]triazolo[4,3-a]pyridine], which IC50 is on record?
Answer: The IC50 was at most 1 µM.

Question: For Cc1ccc(Cn2c(C)cc3c2ccc2nnc(C)n23)cc1 [Example 19, 1,7-dimethyl-6-(4-methylbenzyl)-6H-pyrrolo[2,3-e][1,2,4]triazolo[4,3-a]pyridine], which IC50 is on record?
Answer: The IC50 was at most 1 µM.

Question: For Cc1nnc2ccc3c(cc(C(=O)NCc4ccncc4)n3Cc3ccccc3)n12 [Example 126, 6-Benzyl-1-methyl-N-(pyridin-4-ylmethyl)-6H-pyrrolo[2,3-e][1,2,4]triazolo[4,3-a]pyridine-7-carboxamide bis(trifluoroacetate) salt], which IC50 is on record?
Answer: The IC50 was at most 1 µM.

Question: With CCN1CC(n2ccc(-c3cc4c(ccc5nnc(C)n54)n3Cc3cccc(Cl)c3)n2)C1 [Example 160, 6-(3-Chlorobenzyl)-7-[1-(1-ethylazetidin-3-yl)-1H-pyrazol-3-yl]-1-methyl-6H-pyrrolo[2,3-e][1,2,4]triazolo[4,3-a]pyridine bis(trifluoroacetate) salt] as the compound, how does the IC50 read?
Answer: The IC50 was at most 1 µM.

Question: For Cc1cc2c(cc(NCCCN(C)C)c3nnc(C)n32)n1Cc1ccccc1 [Example 245, N1-(6-Benzyl-1,7-dimethyl-6H-pyrrolo[2,3-e][1,2,4]triazolo[4,3-a]pyridin-4-yl)-N3,N3-dimethylpropane-1,3-diamine], which IC50 is on record?
Answer: The IC50 was at most 1 µM.

Question: CCS(=O)(=O)N1CC(n2ccc(-c3cc4c(ccc5nnc(C)n54)n3Cc3cccc(Cl)c3)n2)C1 [Example 166, 6-(3-Chlorobenzyl)-7-{1-[1-(ethylsulfonyl)azetidin-3-yl]-1H-pyrazol-3-yl}-1-methyl-6H-pyrrolo[2,3-e][1,2,4]triazolo[4,3-a]pyridine trifluoroacetate salt] was tested. Which IC50 did it give?
Answer: The IC50 was at most 1 µM.

Question: With Cc1cc2c(ccc3nnc(C)n32)n1Cc1cccc(C(N)=O)c1 [Example 30, 3-((1,7-dimethyl-6H-pyrrolo[2,3-e][1,2,4]triazolo[4,3-a]pyridin-6-yl)methyl)benzamide trifluoroacetate salt] as the compound, how does the IC50 read?
Answer: Its IC50 is 1 to 10 µM.

Question: For Cc1cc2c(ccc3nnc(C)n32)n1Cc1cccc(Cl)c1 [Example 9, 6-(3-chlorobenzyl)-1,7-dimethyl-6H-pyrrolo[2,3-e][1,2,4]triazolo[4,3-a]pyridine], which IC50 is on record?
Answer: The IC50 was at most 1 µM.

Question: With Cc1nnc2ccc3c(cc(-c4ncco4)n3Cc3cccc(Cl)c3)n12 [Example 194, 6-(3-Chlorobenzyl)-1-methyl-7-(1,3-oxazol-2-yl)-6H-pyrrolo[2,3-e][1,2,4]triazolo[4,3-a]pyridine trifluoroacetate salt] as the compound, how does the IC50 read?
Answer: Its IC50 is at most 1 µM.

Question: How did the IC50 turn out when Cc1cc2c(ccc3nnc(C)n32)n1Cc1cccc(CN2CCNCC2)c1 [Example 48, 1,7-dimethyl-6-[3-(piperazin-1-ylmethyl)benzyl]-6H-pyrrolo[2,3-e][1,2,4]triazolo[4,3-a]pyridine] was run?
Answer: Its IC50 is 1 to 10 µM.

Question: How did the IC50 turn out when Cc1nnc2ccc3c(cc(-c4c[nH]cn4)n3Cc3ccccc3)n12 [Example 74, 6-benzyl-7-(1H-imidazol-4-yl)-1-methyl-6H-pyrrolo[2,3-e][1,2,4]triazolo[4,3-a]pyridine] was run?
Answer: Its IC50 is at most 1 µM.

Question: With Cc1cc2c(cc(N[C@@H]3CCOC3)c3nnc(C)n32)n1Cc1ccccc1 [Example 147, 6-benzyl-1,7-dimethyl-N-[(3R)-tetrahydrofuran-3-yl]-6H-pyrrolo[2,3-e][1,2,4]triazolo[4,3-a]pyridin-4-amine] as the compound, how does the IC50 read?
Answer: The IC50 was 1 to 10 µM.

Question: Cc1cc2c(cc(NC(N)=O)c3nnc(C)n32)n1Cc1ccccc1 [Example 252, 1-(6-Benzyl-1,7-dimethyl-6H-pyrrolo[2,3-e][1,2,4]triazolo[4,3-a]pyridin-4-yl)urea] was tested. Which IC50 did it give?
Answer: The IC50 was at most 1 µM.

Question: For Cc1cc2c(ccc3nnc(C)n32)n1Cc1cccc(CN(C)CCO)c1 [Example 37, 2-[{3-[(1,7-dimethyl-6H-pyrrolo[2,3-e][1,2,4]triazolo[4,3-a]pyridin-6-yl)methyl]benzyl}(methyl)amino]ethanol], which IC50 is on record?
Answer: Its IC50 is at most 1 µM.

Question: Cc1cc2c(cc(NC(=O)N(C)C)c3nnc(C)n32)n1Cc1ccccc1 [Example 251, 3-(6-Benzyl-1,7-dimethyl-6H-pyrrolo[2,3-e][1,2,4]triazolo[4,3-a]pyridin-4-yl)-1,1-dimethylurea] was tested. Which IC50 did it give?
Answer: The IC50 was at most 1 µM.

Question: For CCNC(=O)Nc1cc2c(cc(C)n2Cc2ccccc2)n2c(C)nnc12 [Example 249, 1-(6-Benzyl-1,7-dimethyl-6H-pyrrolo[2,3-e][1,2,4]triazolo[4,3-a]pyridin-4-yl)-3-ethylurea], which IC50 is on record?
Answer: Its IC50 is at most 1 µM.

Question: How did the IC50 turn out when Cc1cc2c(cc(NCCN(C)C)c3nnc(C)n32)n1Cc1ccccc1 [Example 246, N1-(6-Benzyl-1,7-dimethyl-6H-pyrrolo[2,3-e][1,2,4]triazolo[4,3-a]pyridin-4-yl)-N2,N2-dimethylethane-1,2-diamine] was run?
Answer: Its IC50 is at most 1 µM.

Question: How did the IC50 turn out when COc1cccc(Cn2c(C)cc3c2ccc2nnc(C)n23)c1 [Example 22, 6-(3-methoxybenzyl)-1,7-dimethyl-6H-pyrrolo[2,3-e][1,2,4]triazolo[4,3-a]pyridine] was run?
Answer: The IC50 was at most 1 µM.

Question: Which IC50 does the source give for CCn1ccc(-c2cc3c(ccc4nnc(C)n43)n2Cc2ccccc2)n1 [Example 79, 6-benzyl-7-(1-ethyl-1H-pyrazol-3-yl)-1-methyl-6H-pyrrolo[2,3-e][1,2,4]triazolo[4,3-a]pyridine] here?
Answer: The IC50 was at most 1 µM.

Question: CCOC(=O)N1CC(n2ccc(-c3cc4c(ccc5nnc(C)n54)n3Cc3cccc(Cl)c3)n2)C1 [Example 167, Ethyl 3-{3-[6-(3-chlorobenzyl)-1-methyl-6H-pyrrolo[2,3-e][1,2,4]triazolo[4,3-a]pyridin-7-yl]-1H-pyrazol-1-yl}azetidine-1-carboxylate trifluoroacetate salt] was tested. Which IC50 did it give?
Answer: Its IC50 is at most 1 µM.

Question: For Cc1nnc2ccc3c(cc(-c4ncco4)n3Cc3cc(Cl)cc(CN4CCC(O)C4)c3)n12 (racemic) [Example 199, 1-(3-Chloro-5-{[1-methyl-7-(1,3-oxazol-2-yl)-6H-pyrrolo[2,3-e][1,2,4]triazolo[4,3-a]pyridin-6-yl]methyl}benzyl)pyrrolidin-3-ol bis(trifluoroacetate) salt (racemic)], which IC50 is on record?
Answer: Its IC50 is at most 1 µM.

Question: With Cc1nnc2ccc3c(cc(CCO)n3Cc3ccccc3)n12 [Example 61, 2-(6-benzyl-1-methyl-6H-pyrrolo[2,3-e][1,2,4]triazolo[4,3-a]pyridin-7-yl)ethanol] as the compound, how does the IC50 read?
Answer: The IC50 was 1 to 10 µM.

Question: CCC(=O)Nc1cc2c(cc(C)n2Cc2ccccc2)n2c(C)nnc12 [Example 268, N-(6-Benzyl-1,7-dimethyl-6H-pyrrolo[2,3-e][1,2,4]triazolo[4,3-a]pyridin-4-yl)propionamide] was tested. Which IC50 did it give?
Answer: Its IC50 is at most 1 µM.

Question: For Cc1cccc(Cn2c(C)cc3c2ccc2nnc(C)n23)c1 [Example 18, 1,7-dimethyl-6-(3-methylbenzyl)-6H-pyrrolo[2,3-e][1,2,4]triazolo[4,3-a]pyridine], which IC50 is on record?
Answer: Its IC50 is at most 1 µM.
